According to ChEMBL document CHEMBL4011587, “Design, synthesis and evaluation of novel ferulic acid-O-alkylamine derivatives as potential multifunctional agents for the treatment of Alzheimer's disease” (Eur J Med Chem, 2017):
Activity calls are given as the source filed them. The rule behind the calls is not given here.

Tests used:
[1] = Selectivity index, ratio of IC50 for AChE in human erythrocytes to IC50 for BuChE in human serum
[2] = tested on: Mus musculus; assay: Acute toxicity in Kunming mouse assessed as effect on fur sleekness up to 1000 mg/kg, po measured after 4 hrs up to 14 days; assay type: organism-based; settings: in vivo
[3] = Selectivity ratio of IC50 for AChE in human erythrocytes to IC50 for electric eel AChE; assay type: ADME, cell-based
[4] = tested on: Mus musculus; assay: Acute toxicity in Kunming mouse assessed as effect on water consumption up to 1000 mg/kg, po measured after 4 hrs up to 14 days; assay type: organism-based; settings: in vivo
[5] = tested on: Mus musculus; assay: Reversal of scopolamine-induced memory deficit in Kunming mouse assessed as increase in step down latency time administered orally treated for 1 hr before training followed by scopolamine challenge 30 mins before training measured 24 hrs after training trial by passive avoidance test; assay type: functional
[6] = biological target: T1, Acetylcholinesterase (Rattus norvegicus, UniProt P37136); assay: Inhibition of AChE in rat cortex homogenates using acetylthiocholine chloride as substrate measured after 15 mins by Ellman's method; assay type: ADME
T1 sequence (P37136 whole entry): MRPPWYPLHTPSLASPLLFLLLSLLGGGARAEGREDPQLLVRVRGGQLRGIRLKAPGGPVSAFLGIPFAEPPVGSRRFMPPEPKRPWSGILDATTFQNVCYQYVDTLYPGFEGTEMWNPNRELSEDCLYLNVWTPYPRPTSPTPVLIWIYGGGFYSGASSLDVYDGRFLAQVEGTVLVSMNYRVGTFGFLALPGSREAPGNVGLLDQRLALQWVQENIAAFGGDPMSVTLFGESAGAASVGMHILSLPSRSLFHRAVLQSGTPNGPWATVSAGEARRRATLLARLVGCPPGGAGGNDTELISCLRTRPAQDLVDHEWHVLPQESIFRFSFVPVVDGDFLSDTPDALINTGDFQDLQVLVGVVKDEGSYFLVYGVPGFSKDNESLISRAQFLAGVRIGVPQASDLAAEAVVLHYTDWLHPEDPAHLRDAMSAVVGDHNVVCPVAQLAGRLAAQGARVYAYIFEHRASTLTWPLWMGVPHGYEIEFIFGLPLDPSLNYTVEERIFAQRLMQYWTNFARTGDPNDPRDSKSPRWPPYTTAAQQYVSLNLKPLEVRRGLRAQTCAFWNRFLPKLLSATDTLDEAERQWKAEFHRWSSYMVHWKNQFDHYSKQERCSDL

[7] = biological target: Cholinesterase (Equus caballus, UniProt P81908); assay: Inhibition of equine serum BuChE using butyrylthiocholine chloride as substrate measured after 15 mins by Ellman's method
[8] = biological target: T2, Acetylcholinesterase (Electrophorus electricus, UniProt O42275); assay: Inhibition of electric eel AChE using acetylthiocholine chloride as substrate measured after 15 mins by Ellman's method; assay type: ADME
[9] = biological target: Amyloid-beta precursor protein (Homo sapiens) (UniProt P05067); assay: Inhibition of amyloid beta (1 to 42) (unknown origin) fibril formation at 25 uM after 24 hrs by transmission electron microscopic method
[10] = biological target: Amyloid-beta precursor protein (Homo sapiens) (UniProt P05067); assay: Inhibition of amyloid beta (1 to 42) (unknown origin) self-aggregation at 25 uM after 24 hrs by thioflavin-T fluorescence assay relative to control
[11] = Cytotoxicity against rat PC12 cells assessed as cell viability at 100 uM after 48 hrs by MTT assay relative to control; assay type: cell-based, PC-12; settings: read-out: Activity
[12] = Permeability of the compound in PBS/EtOH at 100 ug/ml after 18 hrs by PAMPA-BBB assay
[13] = tested on: Mus musculus; assay: Acute toxicity in Kunming mouse assessed as effect on food consumption up to 1000 mg/kg, po measured after 4 hrs up to 14 days; assay type: organism-based; settings: in vivo
[14] = biological target: Amyloid-beta precursor protein (Homo sapiens) (UniProt P05067); assay: Disaggregation of amyloid beta (1 to 42) (unknown origin) self aggregation at 25 uM after 24 hrs by thioflavin-T assay relative to control
[15] = tested on: Mus musculus; assay: Acute toxicity in Kunming mouse up to 1000 mg/kg, po measured after 4 hrs up to 14 days; assay type: organism-based; settings: in vivo
[16] = tested on: Mus musculus; assay: Reversal of scopolamine-induced memory deficit in Kunming mouse assessed as step down latency time at 21.3 mg/kg, po treated for 1 hr before training followed by scopolamine challenge 30 mins before training measured 24 hrs after training trial by passive avoidance test (reference value: 50.5 sec); assay type: functional
[17] = tested on: PC-12; assay: Protection against H2O2-induced oxidative injury in rat PC12 cells assessed as cell viability at 1 uM pretreated for 2 hrs followed by H2O2 challenge for 30 mins measured after 24 hrs by MTT assay (reference value: 50.7%); assay type: functional; settings: read-out: Activity
[18] = biological target: Amyloid-beta precursor protein (Homo sapiens) (UniProt P05067); assay: Inhibition of amyloid beta (1 to 42) (unknown origin) self-aggregation at 50 uM after 24 hrs by thioflavin-T fluorescence assay relative to control
[19] = tested on: Mus musculus; assay: Acute toxicity in Kunming mouse assessed as change in body weight up to 1000 mg/kg, po measured after 4 hrs up to 14 days; assay type: organism-based; settings: in vivo
[20] = biological target: Cholinesterase (Homo sapiens, UniProt P06276); assay: Inhibition of BuChE in human serum using butyrylthiocholine chloride as substrate measured after 15 mins by Ellman's method
[21] = biological target: Amyloid-beta precursor protein (Homo sapiens) (UniProt P05067); assay: Inhibition of amyloid beta (1 to 42) (unknown origin) self-aggregation after 24 hrs by thioflavin-T fluorescence assay
[22] = tested on: PC-12; assay: Protection against H2O2-induced oxidative injury in rat PC12 cells assessed as cell viability at 10 uM pretreated for 2 hrs followed by H2O2 challenge for 30 mins measured after 24 hrs by MTT assay (reference value: 50.7%); assay type: functional; settings: read-out: Activity
[23] = biological target: Amyloid-beta precursor protein (Homo sapiens) (UniProt P05067); assay: Inhibition of amyloid beta (1 to 42) (unknown origin) self-aggregation at 12.5 uM after 24 hrs by thioflavin-T fluorescence assay relative to control
[24] = tested on: Mus musculus; assay: Acute toxicity in Kunming mouse assessed as liver damage up to 1000 mg/kg, po measured after 14 days by macroscopic method; assay type: organism-based; settings: in vivo, 336 h
[25] = Inhibition of BuChE in rat serum using butyrylthiocholine chloride as substrate measured after 15 mins by Ellman's method; settings: 0.25 h
[26] = Selectivity index, ratio of IC50 for electric eel AChE to IC50 for equine serum BuChE
[27] = tested on: Mus musculus; assay: Acute toxicity in Kunming mouse assessed as heart damage up to 1000 mg/kg, po measured after 14 days by macroscopic method; assay type: organism-based; settings: in vivo, 336 h
[28] = biological target: Amyloid-beta precursor protein (Homo sapiens) (UniProt P05067); assay: Disaggregation of amyloid beta (1 to 42) (unknown origin) self aggregation at 25 uM after 24 hrs by transmission electron microscopic method
[29] = tested on: PC-12; assay: Cytotoxicity against rat PC12 cells assessed as cell viability up to 10 uM after 48 hrs by MTT assay; assay type: cell-based; settings: pc-12, 48 h
[30] = tested on: Mus musculus; assay: Acute toxicity in Kunming mouse assessed as kidney damage up to 1000 mg/kg, po measured after 14 days by macroscopic method; assay type: organism-based; settings: in vivo, 336 h
[31] = tested on: PC-12; assay: Protection against H2O2-induced oxidative injury in rat PC12 cells assessed as increase in cell viability pretreated for 2 hrs followed by H2O2 challenge for 30 mins measured after 24 hrs by MTT assay; assay type: functional, cell-based
[32] = Antioxidant activity assessed as inhibition of AAPH-induced peroxyl radical generation measured as trolox equivalent at 1 to 10 uM preincubated for 15 mins followed by AAPH addition measured every minute for 90 mins by ORAC-FL assay; assay type: functional
[33] = biological target: Acetylcholinesterase (Homo sapiens, UniProt P22303); assay: Inhibition of AChE in human erythrocytes using acetylthiocholine chloride as substrate measured after 15 mins by Ellman's method; assay type: cell-based
[34] = biological target: T2, Acetylcholinesterase; assay: Inhibition of electric eel AChE at 25 uM using acetylthiocholine chloride as substrate measured after 15 mins by Ellman's method relative to control; settings: 0.25 h

T2 sequence (O42275 whole entry): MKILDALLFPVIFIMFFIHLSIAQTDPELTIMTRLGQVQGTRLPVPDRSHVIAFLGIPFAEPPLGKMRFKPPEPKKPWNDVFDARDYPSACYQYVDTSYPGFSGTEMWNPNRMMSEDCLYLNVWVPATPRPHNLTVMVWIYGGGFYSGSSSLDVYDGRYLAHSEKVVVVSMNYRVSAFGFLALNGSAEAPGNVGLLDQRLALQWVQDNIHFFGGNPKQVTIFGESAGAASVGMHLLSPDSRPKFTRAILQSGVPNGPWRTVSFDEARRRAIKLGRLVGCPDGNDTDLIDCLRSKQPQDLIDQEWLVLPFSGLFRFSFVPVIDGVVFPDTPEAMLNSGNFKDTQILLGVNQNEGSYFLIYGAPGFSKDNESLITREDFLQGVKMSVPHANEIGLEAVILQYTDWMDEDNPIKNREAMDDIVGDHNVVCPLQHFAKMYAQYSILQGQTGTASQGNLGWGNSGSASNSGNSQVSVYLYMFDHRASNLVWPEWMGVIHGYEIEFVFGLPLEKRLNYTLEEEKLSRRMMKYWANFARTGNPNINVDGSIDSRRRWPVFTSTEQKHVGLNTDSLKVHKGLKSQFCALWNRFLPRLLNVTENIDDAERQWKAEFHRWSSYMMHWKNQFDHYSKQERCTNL
Amyloid-beta precursor protein (Homo sapiens), sequence (P05067 whole entry): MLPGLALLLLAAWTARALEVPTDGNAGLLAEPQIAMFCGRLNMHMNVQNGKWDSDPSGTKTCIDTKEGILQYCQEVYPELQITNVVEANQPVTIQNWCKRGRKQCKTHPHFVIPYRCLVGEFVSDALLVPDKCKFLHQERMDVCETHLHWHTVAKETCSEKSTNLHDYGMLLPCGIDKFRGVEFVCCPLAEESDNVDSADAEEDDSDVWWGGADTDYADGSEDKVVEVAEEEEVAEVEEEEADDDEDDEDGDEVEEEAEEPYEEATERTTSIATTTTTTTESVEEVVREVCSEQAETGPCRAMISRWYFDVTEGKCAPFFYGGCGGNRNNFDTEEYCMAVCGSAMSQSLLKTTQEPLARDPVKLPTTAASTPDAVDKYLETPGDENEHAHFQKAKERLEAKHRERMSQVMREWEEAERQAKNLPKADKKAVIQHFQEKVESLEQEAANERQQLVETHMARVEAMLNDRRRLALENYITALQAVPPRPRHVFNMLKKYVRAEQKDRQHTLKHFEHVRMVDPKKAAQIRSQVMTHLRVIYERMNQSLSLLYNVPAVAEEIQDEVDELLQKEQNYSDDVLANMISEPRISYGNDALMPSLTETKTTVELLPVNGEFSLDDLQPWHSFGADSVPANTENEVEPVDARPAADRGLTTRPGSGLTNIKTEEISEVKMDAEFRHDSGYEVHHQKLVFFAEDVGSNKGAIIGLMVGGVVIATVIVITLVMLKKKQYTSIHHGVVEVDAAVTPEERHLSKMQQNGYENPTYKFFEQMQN
Cholinesterase (Equus caballus, UniProt P81908), sequence (P81908 whole entry): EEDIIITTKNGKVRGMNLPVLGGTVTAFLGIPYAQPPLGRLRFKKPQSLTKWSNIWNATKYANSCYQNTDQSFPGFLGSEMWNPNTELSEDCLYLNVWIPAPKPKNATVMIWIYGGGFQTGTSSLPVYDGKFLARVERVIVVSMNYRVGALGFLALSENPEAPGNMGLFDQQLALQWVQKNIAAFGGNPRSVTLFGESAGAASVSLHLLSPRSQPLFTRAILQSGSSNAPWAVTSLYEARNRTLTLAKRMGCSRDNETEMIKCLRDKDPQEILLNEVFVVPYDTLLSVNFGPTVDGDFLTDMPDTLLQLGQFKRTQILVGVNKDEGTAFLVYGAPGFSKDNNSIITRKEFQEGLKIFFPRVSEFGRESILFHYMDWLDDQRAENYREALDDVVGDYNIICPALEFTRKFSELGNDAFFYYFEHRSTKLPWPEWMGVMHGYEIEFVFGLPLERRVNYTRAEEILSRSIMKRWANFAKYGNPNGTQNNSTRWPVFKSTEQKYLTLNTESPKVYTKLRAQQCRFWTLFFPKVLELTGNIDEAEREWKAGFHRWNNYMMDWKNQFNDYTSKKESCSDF
Acetylcholinesterase (Homo sapiens, UniProt P22303), sequence (P22303 whole entry): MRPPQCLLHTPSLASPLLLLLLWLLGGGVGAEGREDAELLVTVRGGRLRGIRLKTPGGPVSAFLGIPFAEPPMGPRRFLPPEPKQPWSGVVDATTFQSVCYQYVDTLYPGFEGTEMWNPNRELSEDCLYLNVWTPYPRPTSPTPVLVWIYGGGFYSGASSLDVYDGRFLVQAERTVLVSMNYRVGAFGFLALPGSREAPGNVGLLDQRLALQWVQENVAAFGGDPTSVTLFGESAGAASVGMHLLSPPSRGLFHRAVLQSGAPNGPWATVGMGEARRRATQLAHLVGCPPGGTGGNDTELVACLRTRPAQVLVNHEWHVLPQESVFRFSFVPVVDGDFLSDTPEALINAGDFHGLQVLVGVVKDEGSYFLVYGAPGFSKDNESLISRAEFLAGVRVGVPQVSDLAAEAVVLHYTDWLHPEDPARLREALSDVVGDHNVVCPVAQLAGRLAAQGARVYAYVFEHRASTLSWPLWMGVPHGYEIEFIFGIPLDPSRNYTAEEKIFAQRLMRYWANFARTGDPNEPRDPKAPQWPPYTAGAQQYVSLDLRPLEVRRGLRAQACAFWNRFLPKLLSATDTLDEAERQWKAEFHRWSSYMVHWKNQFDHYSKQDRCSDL
Cholinesterase (Homo sapiens, UniProt P06276), sequence (P06276 whole entry): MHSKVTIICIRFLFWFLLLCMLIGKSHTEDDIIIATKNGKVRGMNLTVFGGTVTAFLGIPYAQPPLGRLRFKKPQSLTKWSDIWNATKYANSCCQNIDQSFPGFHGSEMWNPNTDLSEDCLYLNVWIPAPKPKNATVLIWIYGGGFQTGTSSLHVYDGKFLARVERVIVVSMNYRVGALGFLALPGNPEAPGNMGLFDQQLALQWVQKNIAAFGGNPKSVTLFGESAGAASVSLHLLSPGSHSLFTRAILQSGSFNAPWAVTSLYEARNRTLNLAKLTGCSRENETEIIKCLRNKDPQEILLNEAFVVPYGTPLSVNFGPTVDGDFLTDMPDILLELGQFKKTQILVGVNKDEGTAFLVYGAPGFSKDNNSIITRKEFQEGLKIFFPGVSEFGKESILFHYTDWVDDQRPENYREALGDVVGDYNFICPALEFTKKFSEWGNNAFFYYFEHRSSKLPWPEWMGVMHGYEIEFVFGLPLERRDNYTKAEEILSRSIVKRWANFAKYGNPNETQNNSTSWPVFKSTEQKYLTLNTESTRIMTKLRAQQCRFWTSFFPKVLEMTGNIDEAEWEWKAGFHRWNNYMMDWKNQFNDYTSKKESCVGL

In the case of `COc1cc(/C=C/C(=O)N2CCC(Cc3ccccc3)CC2)ccc1OCCCCN1CCc2ccccc2C1`, the “Ratio IC50” value [1] is reported as 54.6, the Activity [2] is reported as “Non-Toxic” and the Ratio IC50 [3] is reported as 2 to 4. The Activity [4] was “Non-Toxic”, the Activity [5] was “Dose-dependent effect” and the IC50 [6] was 1.8 µM. The IC50 [7] was 0.021 µM, the IC50 [8] was 2.13 µM and the inhibition [9] was “Active”. For the same molecule, the inhibition [10] was 50.8%, the viability at 48 h, 100 µM [11] was 85.8% and the Papp at 18 h, 100 ug/ml [12] was 18.4 ×10⁻⁶ cm/s. For the same molecule, the Activity [13] was “Non-Toxic”, the Activity [14] was 38.7% and the Activity [15] was “Non-Toxic”. It also gave a Time [16] of 182.8 s, a viability at 1 µM [17] of 58.6% and an inhibition [18] of 68.7%. The Activity [19] was “Non-Toxic”, the IC50 [20] was 0.07 µM and the inhibition [21] was “Dose-dependent effect”. For the same molecule, the viability at 10 µM [22] was 76.7%, the inhibition [23] was 31.2% and the Activity [24] was “Non-Toxic”. For the same molecule, the IC50 [25] was 8.63 µM, the Ratio IC50 [26] was 101 and the Activity [27] was “Non-Toxic”. For the same molecule, the Activity [28] was “Active”, the Activity [29] was “Non-Toxic” and the Activity [30] was “Non-Toxic”. For the same molecule, the Activity [31] was “Dose-dependent effect”, the Activity [32] was 0.55 equiv and the IC50 [33] was 3.82 µM.
`COc1cc(/C=C/C(=O)N2CCC(Cc3ccccc3)CC2)ccc1O` gave an inhibition at 25 µM [34] of under 5%, an IC50 [7] of 5.7 µM and an inhibition [10] of 65.9%. It also gave an Activity [32] of 1.2 equiv.
Work on `COc1cc(/C=C/C(=O)N2CCC(Cc3ccccc3)CC2)ccc1OCCCCN1CCN(Cc2ccccc2)CC1` yielded an IC50 [6] of 56 µM, an IC50 [7] of 0.39 µM and an IC50 [8] of 2.53 µM. For the same molecule, the inhibition [10] was 54.6%, the IC50 [25] was 41.3 µM and the Ratio IC50 [26] was 6.5. For the same molecule, the Activity [32] was 0.67 equiv.
With `COc1cc(/C=C/C(=O)N2CCC(Cc3ccccc3)CC2)ccc1OCCCCCN1CCN(c2ccccn2)CC1` the IC50 [6] was 58.5 µM, the IC50 [7] was 1.52 µM and the IC50 [8] was 9.12 µM. For the same molecule, the inhibition [10] was 51.5%, the IC50 [25] was 57.3 µM and the Ratio IC50 [26] was 6. The Activity [32] was 0.45 equiv.
Work on `COc1cc(/C=C/C(=O)O)ccc1O` [FERULATE] yielded an inhibition at 25 µM [34] of under 5% and an Activity [32] of 1.1 equiv.
Work on `COc1cc2c(cc1OC)C(=O)C(CC1CCN(Cc3ccccc3)CC1)C2` (configuration not stated) [DONEPEZIL] yielded an IC50 [25] of 4.42 µM.
Work on `COc1cc(/C=C/C(=O)N2CCC(Cc3ccccc3)CC2)ccc1OCCCCN1CCN(c2ccccn2)CC1` yielded an IC50 [6] of 67.2 µM, an IC50 [7] of 1.62 µM and an IC50 [8] of 11.2 µM. The inhibition [10] was 49.8%, the IC50 [25] was 48.6 µM and the Ratio IC50 [26] was 6.9. It also gave an Activity [32] of 0.4 equiv.
Molecule `COc1cc(/C=C/C(=O)N2CCC(Cc3ccccc3)CC2)ccc1OCCCCN1CCN(c2ncccn2)CC1` has an IC50 [6] of 44.3 µM, an IC50 [7] of 1.56 µM and an IC50 [8] of 12.4 µM. The inhibition [10] was 46%, the IC50 [25] was 56.2 µM and the Ratio IC50 [26] was 7.9. It also gave an Activity [32] of 0.43 equiv.
For `COc1cc(/C=C/C(=O)N2CCC(Cc3ccccc3)CC2)ccc1OCCCCCN1CCN(Cc2ccccc2)CC1`, the IC50 [6] was 79.8 µM, the IC50 [7] was 2.23 µM and the IC50 [8] was 2.62 µM. For the same molecule, the inhibition [10] was 55.9%, the IC50 [25] was 61.5 µM and the Ratio IC50 [26] was 1.2. The Activity [32] was 0.66 equiv.
In the case of `COc1cc(/C=C/C(=O)N2CCC(Cc3ccccc3)CC2)ccc1OCCCCCN1CCc2ccccc2C1`, the IC50 [6] is reported as 3.21 µM, the IC50 [7] is reported as 0.31 µM and the IC50 [8] is reported as 4.33 µM. It also gave an inhibition [10] of 50.7%, an IC50 [25] of 11.4 µM and a Ratio IC50 [26] of 14. It also gave an Activity [32] of 0.47 equiv.
